{"source": "patent US20190374650A1", "about": "“COMPOSITIONS AND METHODS FOR DELIVERY OF POLYMER/BIOMACROMOLECULE CONJUGATES” (THE REGENTS OF THE UNIVERSITY OF MICHIGAN, priority 2017, published 2019)", "key": {"[1]": {"test_system": "neo-antigen-specific CD8+ T cells", "assay": "Intratumoral injection into established MC38 tumors: tetramer staining of PBMCs", "format": "in vivo, C57BL/6 mice", "settings": "MC38 tumor-bearing mice, day 7 after first injection", "experimental": "(§1) C57BL/6 mice were subcutaneously injected with 5×10^5 MC38 colon carcinoma cells (a gift from W. Zou, University of Michigan) into the right flank and randomly sorted for treatment after 9 days when the tumor volumes reached approximately 50-70 mm^3. Fifty μl PBS solution of ASMTNMELM, CpG, ASMTNMELM+CpG, PEI-SS-CSSASMTNMELM+CpG (10 μg ASMTNMELM and 15 μg CpG), or blank PBS (50 μl) were directly injected into tumor every week for total three times. PBMCs were collected on day 7 after the first sample injection and tetramer staining was performed for flow cytometric analysis of neo-antigen-specific CD8+ T cells. The sizes of the tumors were measured every three days using a digital caliper, and the tumor volume was estimated by ellipsoidal calculation as V=(width)^2×length×π/6. The mice were euthanized when the tumors reached the maximum permitted size (1.5 cm in any dimension) or ulcerations occurred."}, "MC38 tumors": {"test_system": "MC38 tumors", "assay": "In vivo cancer immunotherapy against established MC38 tumors: tumor volume and survival", "set-up": "species or system C57BL/6 mice", "settings": "three weekly intratumoral injections", "experimental": "as §1"}, "BMDCs [2]": {"test_system": "BMDCs", "assay": "BMDC cytotoxicity (CCK-8 viability)", "format": "cell-based", "settings": "24 h incubation, concentration as high as 100 μg/ml", "experimental": "(§2) BMDCs were plated at a density of 1×10^5 cells/well in 96 well plates in RPMI 1640 supplemented with 10% FBS and 1% PS, and incubated overnight at 37° C. under 5% CO2. For cytotoxicity assessment, cells were incubated with either free form (CSSASMNTMELM) or PEI conjugate (PEI-SS-CSSASMTNMELM) of the neo-antigen peptide for 24 h at concentrations of 1, 5, 10, 20, 50, 100 μg/ml. The viability was measured by adding CCK-8 to each well of the plate according to manufacturer's instruction followed by absorbance measurement at 450 nm using a microplate reader after 2 h incubation. Relative viability was calculated as to the ratio of the absorbance to the non-sample treated cells (0 μg/ml). To investigate BMDC activation, cells were treated with PBS or PEI-SS-CSSASMTNMELM, PBS+CpG, PEI-SS-CSSASMTNMELM+CpG (2 μg/ml PEI-SS-CSSASMTNMELM and 1 μg/ml CpG) for 2 h. The fresh cell culture media were placed after sample washing and collected for cytokine analysis after further 24 h incubation. The concentration of IL-12p70 in the media was measured using ELISA kit by following the manufacturer's instruction."}, "BMDCs [3]": {"test_system": "BMDCs", "assay": "BMDC activation: IL-12p70 secretion (ELISA)", "format": "cell-based", "settings": "alone, w/o CpG; 2 μg/ml, 2 h", "experimental": "as §2"}, "BMDCs [4]": {"test_system": "BMDCs", "assay": "BMDC activation: expression of co-stimulatory markers CD86 and CD40 by flow cytometry", "format": "cell-based, C57BL/6 mice", "settings": "conjugate alone, w/o CpG; 1% modification, 2 nmol SIINFEKL/ml, 24 h", "experimental": "(§3) Femur and tibia were harvested from C57BL/6 mice. Cells were collected by flushing bone marrow with a syringe, passing the cell suspension through a cell strainer (mesh size=40 μm), followed by centrifugation (200×g, 5 min). Cells were then seeded into non-tissue culture treated petri-dishes at a density of 2×10^6 cells/ml in DC culture media (RPMI 1640 supplemented with 10% FBS, 1% penicillin-streptomycin, 50 μM β-mercaptoethanol, and 20 ng/ml GM-CSF), cultured at 37° C. with 5% CO2. Culture media were refreshed on days 3, 6, and 8, and BMDCs were used on days 8-12.\n(§4) BMDCs were seeded at a density of 8×10^5 cells/ml into 12-well plates. Cells were incubated with PGA120k-MAL-CSSSIINFEKL or PGA120k-SS-CSSSIINFEKL (1% modification of carboxyl groups, 2 nmol SIINFEKL/ml) w/or w/o 0.5 μg/ml CpG in 1 ml BMDC culture media for 24 h. Cells were harvested, blocked with anti-CD16/32 at room temperature for 10 min, and then stained with anti-CD11c-PECy7, anti-CD40-APC, anti-CD86-PE, or anti-SIINFEKL-H-2K^b-PE at room temperature for 30 min. Finally, cells were washed and resuspended in 2 μg/ml DAPI solution and analyzed by a flow cytometer (Cyan 5, Beckman Coulter)."}, "BMDCs [5]": {"test_system": "BMDCs", "assay": "Antigen cross-presentation: presentation of SIINFEKL on DCs by flow cytometry", "format": "cell-based, C57BL/6 mice", "settings": "2 nmol SIINFEKL/ml, 24 h", "experimental": "as §3, §4"}, "OT-I T cells": {"test_system": "OT-I T cells", "assay": "Proliferation of antigen-specific CD8+ T cells in vitro (CFSE dilution)", "format": "cell-based, OT-I mice", "settings": "BMDCs pre-activated 24 h, 0.5 nmol SIINFEKL/ml, in the presence of 0.5 μg/ml CpG; co-culture 3 days", "experimental": "SIINFEKL-specific CD8^+ T cells were isolated from OT-I mice using an EasySep™ Mouse CD8^+ T Cell Isolation Kit (STEMCELL Technologies, Cambridge, Mass.), and stained by CFSE. 5×10^4 BMDCs were seeded into 96-well plates, and incubated with PGA120k conjugates (1% modification of carboxyl groups, 0.5 nmol SIINFEKL/ml) w/or w/o 0.5 μg/ml CpG for 24 h. BMDCs were then washed by PBS, followed by co-culture with 5×10^4 CFSE-labeled OT-I T cells for 3 days. Cells were then harvested, blocked with anti-CD16/32, and stained with anti-CD8-APC on ice for 30 min. Cells were washed and resuspended in 2 μg/ml DAPI solution and analyzed for fluorescence dilutions of CFSE by flow cytometry."}}, "note": "Where no end group is shown, it is not given here.", "data": [{"substance": "5′-tccatgacgttcctgacgtt-3′ [CpG]", "values": [{"measurement": "neo-antigen-specific CD8+ T cell response", "setting": "[1]", "value": "failed to elicit"}, {"measurement": "survival rates", "setting": "MC38 tumors", "value": "~20", "unit": "%"}, {"measurement": "tumor progression", "setting": "MC38 tumors", "value": "slowed tumor progression"}]}, {"substance": "ASMTNMELM [neo-antigen]", "values": [{"measurement": "neo-antigen-specific CD8+ T cell response", "setting": "[1]", "value": "failed to elicit"}, {"measurement": "time by which all animals succumbed to tumors", "setting": "MC38 tumors", "value": "≤ 50", "unit": "days"}]}, {"substance": "CSSASMTNMELM [free peptide, CSSASMTNMELM]", "values": [{"measurement": "BMDC viability", "setting": "BMDCs [2]", "value": "maintained their viability"}]}, {"substance": "PEI-SS-CSSASMTNMELM: PEI (MW 25,000), PEGylated, disulfide-linked via SPDP to neo-antigen peptide CSSASMTNMELM (PEGylated PEI disulfide-linked via SPDP)", "values": [{"measurement": "BMDC viability", "setting": "BMDCs [2]", "value": "maintained their viability"}, {"measurement": "activation of BMDCs (secretion of IL-12p70)", "setting": "BMDCs [3]", "value": "failed to induce activation of BMDCs"}]}, {"substance": "PGA-MAL-CSSSIINFEKL: 120 kD poly(L-glutamic acid) linked by non-sensitive maleimide-thiol bond to peptide CSSSIINFEKL, 1% modification of carboxyl groups (not fully specified; poly(L-glutamic acid) 120 kD maleimide-thiol conjugate)", "values": [{"measurement": "activation of DCs (expression of CD86 and CD40)", "setting": "BMDCs [4]", "value": "failed to activate DCs"}]}, {"substance": "PGA-SS-CSSSIINFEKL: 120 kD poly(L-glutamic acid) linked by reduction-sensitive disulfide bond to peptide CSSSIINFEKL, 1% modification of carboxyl groups (not fully specified; poly(L-glutamic acid) 120 kD disulfide conjugate)", "values": [{"measurement": "presentation of SIINFEKL on DCs", "setting": "BMDCs [5]; w/o CpG, compared with soluble peptide and PGA-MAL-CSSSIINFEKL", "value": "significantly higher presentation of SIINFEKL on DCs"}, {"measurement": "presentation of SIINFEKL on DCs", "setting": "BMDCs [5]; with 0.5 μg/ml CpG", "value": "further increased by CpG"}, {"measurement": "CD40 expression in DCs", "setting": "BMDCs [4]", "value": "slightly increased CD40 expression"}]}, {"substance": "SIINFEKL [soluble peptide, model antigen peptide]", "values": [{"measurement": "proliferation of OT-I T cells", "setting": "OT-I T cells", "value": "> 60", "unit": "%"}]}]}
